In this test the target is Nrf2-Keap1 (Homo sapiens, UniProt Q14145). Nature of the test: DiscoveRx PathHunter Nrf2-Keap1 nuclear translocation functional assay (agonist format). The test is classed as cell-based. The note with it: in duplicate, agonist mode; for EC50: 10 concentrations, 3-fold serial dilutions, 30 μM top concentration, normalized to CDDO methyl ester and vehicle. On the procedure:
DiscoveRx PathHunter® Nrf2-Keap1 Functional Assay
DiscoveRx's Nrf2-Keapl translocation assay was used to profile compounds. Primary Screening was performed in duplicate at a single concentration of 10 μM and EC50 determinations were performed in duplicate at 10 concentrations with 3-fold serial dilutions at a 30 μM top concentration or an otherwise specified top concentration.
The PathHunter® Nuclear Translocation assay detects translocation of a target protein to, or from, the nucleus. In this system, Prolink™ (PK), a small enzyme fragment, is fused to the protein of interest and Enzyme Acceptor (EA) is localized in the nucleus. Activation of the signaling pathway induces the target protein to either transit into the nucleus, thus forcing complementation of the PK and EA fragments, or out of the nucleus, hindering complementation of the fragments.
Cell handling: PathHunter Pathway cell lines were expanded from freezer stocks according to standard procedures. 5000 cells were seeded in Cell Plating Reagent 0 (containing 1% FBS) to a total volume of 20 μL into white walled, 384-well microplates and incubated for the overnight prior to testing.
Agonist format: For Agonist determination, cells were incubated with sample to induce response. Dilution of sample stocks was performed to generate 100× sample in DMSO. Intermediate dilution of sample stocks was performed to generate 5× sample in assay buffer (Cell Plating Reagent 0 containing 1% FBS). 5 μL of 5× sample was added to cells and incubated at room temperature for 6 hours. Vehicle concentration was 1%.
Signal detection: Assay signal was generated through a single addition of 25 μL (100% v/v) of PathHunter Flash Detection reagent, followed by a one hour incubation at room temperature. Microplates were read following signal generation with a PerkinElmer Envision™ instrument for chemiluminescent signal detection.
Data analysis: Compound activity was analyzed using CBIS data analysis suite (ChemInnovation, CA). For agonist mode assays, percentage activity was calculated using the following formula: % Activity=100%×(mean RLU of test sample−mean RLU of vehicle control)/(mean MAX RLU control ligand−mean RLU of vehicle control). For EC50 determination, a control agonist dose response curve was generated in the Keap 1-Nrf2 biosensor assay, data was normalized to the maximal and minimal response observed in the presence of the control ligand and vehicle respectively. CDDO methyl ester was used as a control compound. Compounds were tested in the agonist mode of the assay and data was normalized to the maximal and minimal response observed in the presence of control ligand and vehicle.

Setting [1] is: single concentration of 10 μM, 6 hours, normalized to control ligand (CDDO methyl ester) and vehicle.
The mark [2] stands for this setting: 6 h, single concentration of 10 μM, normalized to control ligand (CDDO methyl ester) and vehicle.

In general, EC50 refers to the midpoint of the concentration-response curve. Low values mean an effect from little substance, high ones a need for much substance.

Sequence of Nrf2-Keap1 (Q14145 whole entry): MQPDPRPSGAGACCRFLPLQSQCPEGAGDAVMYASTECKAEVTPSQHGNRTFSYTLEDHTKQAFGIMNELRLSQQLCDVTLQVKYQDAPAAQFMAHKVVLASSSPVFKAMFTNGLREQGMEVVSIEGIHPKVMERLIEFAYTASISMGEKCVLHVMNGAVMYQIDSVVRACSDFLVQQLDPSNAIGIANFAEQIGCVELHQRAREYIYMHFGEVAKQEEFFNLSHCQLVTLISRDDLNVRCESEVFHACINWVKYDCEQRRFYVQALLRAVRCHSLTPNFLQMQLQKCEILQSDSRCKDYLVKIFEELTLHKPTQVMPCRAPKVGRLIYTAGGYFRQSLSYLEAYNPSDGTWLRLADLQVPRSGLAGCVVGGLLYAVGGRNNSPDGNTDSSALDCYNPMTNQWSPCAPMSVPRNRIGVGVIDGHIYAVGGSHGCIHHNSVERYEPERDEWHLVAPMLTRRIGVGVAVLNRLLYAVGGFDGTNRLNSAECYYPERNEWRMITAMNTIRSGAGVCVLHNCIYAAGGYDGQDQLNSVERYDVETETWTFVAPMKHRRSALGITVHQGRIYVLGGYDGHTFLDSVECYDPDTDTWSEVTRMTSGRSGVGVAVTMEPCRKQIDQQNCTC

In the case of `C=C1CC[C@@H]2[C@]3(C)COS(=O)O[C@@H]3CC[C@@]2(C)[C@@H]1C/C=C1/C(=O)OCC1NC(=O)COC` (single isomer, unassigned) [Example 40B], the EC50 is 500 to 2000 nM. Further, under setting [1], the activation at 10 µM was above 100%.

Molecule `CC1(C)CCC[C@@]2(C)[C@H]1CCC1(CC1)[C@@H]2CC/C=C1/C(=O)OC[C@H]1NC=O` [Example 33, N-((S,E)-5-oxo-4-(3-((1′S,4a′S,8a′S)-5′,5′,8a′-trimethyloctahydro-1′H-spiro[cyclopropane-1,2′-naphthalen]-1′-yl)propylidene)tetrahydrofuran-3-yl)formamide] showed an activation at 10 µM under setting [2] of 30 to 50%.

For the molecule `C=C1CC[C@@H]2[C@]3(C)COCO[C@@H]3CC[C@@]2(C)[C@@H]1C/C=C1/C(=O)OCC1NC=O` (single isomer, unassigned) [Example 39A], the EC50 was 500 to 2000 nM. Moreover, the “% Activation @ 10 μM” value under setting [1] was “A (A: >100%)”.

As to `CC1=CC[C@@H]2[C@@H](C)[C@@](O)(C(F)(F)F)CC[C@@]2(C)[C@@H]1C/C=C1/C(=O)OC[C@H]1O` [Example 48, (S,E)-4-hydroxy-3-(2-((1R,4aR,5R,6R,8aR)-6-hydroxy-2,5,8a-trimethyl-6-(trifluoromethyl)-1,4,4a,5,6,7,8,8a-octahydronaphthalen-1-yl)ethylidene)dihydrofuran-2(3H)-one], the EC50 is above 2000 nM.

In the case of `C=C1CC[C@@H]2[C@@H](C)[C@@](C)(O)CC[C@@]2(C)[C@@H]1C/C=C1/C(=O)OC[C@H]1O` [Example 5, (S,E)-4-hydroxy-3-(2-((1R,4aR,5R,6S,8aR)-6-hydroxy-5,6,8a-trimethyl-2-methylenedecahydronaphthalen-1-yl)ethylidene)dihydrofuran-2(3H)-one], the EC50 is below 500 nM. The molecule also registered an activation at 10 µM under setting [2] above 100%.

Under setting [2], `C=C1CC[C@@H]2[C@]3(C)COS(=O)O[C@@H]3CC[C@@]2(C)[C@@H]1C/C=C1\C(=O)OC[C@H]1NC=O` (stereo partly drawn) [Example 28, N-((3S,Z)-4-(2-((4aR,6aS,7R,10aS,10bR)-6a,10b-dimethyl-8-methylene-3-oxidodecahydro-1H-naphtho[2,1-d][1,3,2]dioxathiin-7-yl)ethylidene)-5-oxotetrahydrofuran-3-yl)formamide] registered an activation at 10 µM of 51 to 100%.

For the molecule `CC(=O)N[C@@H]1COC(=O)/C1=C\CC[C@H]1C2(CC[C@H]3C(C)(C)CCC[C@@]31C)CC2` [Example 36, N—((S,Z)-5-oxo-4-(3-((1′S,4a′S,8a′S)-5′,5′,8a′-trimethyloctahydro-1′H-spiro[cyclopropane-1,2′-naphthalen]-1′-yl)propylidene)tetrahydrofuran-3-yl)acetamide], the EC50 is above 2000 nM. Also, the activation at 10 µM under setting [2] was 51 to 100%.

Regarding `C=C1CC[C@@H]2[C@]3(C)CO[S@](=O)O[C@@H]3CC[C@@]2(C)[C@@H]1C/C=C1/C(=O)OC[C@@H]1O` [Example 10, (R,E)-3-(2-((3S,4aR,6aS,7 R,10aS,10bR)-6a,10b-dimethyl-8-methylene-3-oxidodecahydro-1H-naphtho[2,1-d][1,3,2]dioxathiin-7-yl)ethylidene)-4-hydroxydihydrofuran-2(3H)-one], the activation at 10 µM under setting [2] lay in the range of 51 to 100%.

`C=C1CC[C@@H]2[C@@H](C)[C@@](O)(C(F)(F)F)CC[C@@]2(C)[C@@H]1C/C=C1/C(=O)OCC1NC=O` (single isomer, unassigned) [Example 43B]: the EC50 is below 500 nM.

`C=C1CC[C@@H]2[C@]3(C)COCO[C@@H]3CC[C@@]2(C)[C@@H]1C/C=C1/C(=O)OCC1NC(C)=O` (single isomer, unassigned) [Example 45B] returned an EC50 above 2000 nM.

The molecule `C=C1CC[C@@H]2[C@@H](C)[C@H](NC)CC[C@@]2(C)[C@@H]1C/C=C1/C(=O)OC[C@H]1O` [Example 15, (4S,E)-3-(2-((1R,4aR,5R,8aR)-5,8a-dimethyl-6-(methylamino)-2-methylenedecahydronaphthalen-1-yl)ethylidene)-4-hydroxydihydrofuran-2(3H)-one] yielded an EC50 of 500 to 2000 nM. Under setting [2], the activation at 10 µM is 51 to 100%.

For `C=C1CC[C@H]2[C@@](C)(CC[C@](C)(O)[C@@]2(C)CO)[C@@H]1C/C=C1/C(=O)OC[C@H]1O` [Example 6, (S,E)-4-hydroxy-3-(2-((1R,4aS,5R,6S,8a5)-6-hydroxy-5-(hydroxymethyl)-5,6,8a-trimethyl-2-methylenedecahydronaphthalen-1-yl)ethylidene)dihydrofuran-2(3H)-one], the activation at 10 µM under setting [2] lay within 51 to 100%.

As for `C=C1CC[C@@H]2[C@]3(C)CO[S@@](=O)O[C@@H]3CC[C@@]2(C)[C@@H]1C/C=C1/C(=O)OC[C@H]1O` [Example 9, (S,E)-3-(2-((3R,4aR,6aS,7R,10aS,10bR)-6a,10b-dimethyl-8-methylene-3-oxidodecahydro-1H-naphtho[2,1-d][1,3,2]dioxathiin-7-yl)ethylidene)-4-hydroxydihydrofuran-2(3H)-one], the EC50 lay within 500 to 2000 nM.

Under setting [2], `CC1(C)CCC[C@@]2(C)[C@H]1CCC1(CC1)[C@@H]2CC/C=C1\C(=O)OC[C@H]1NS(C)(=O)=O` [Example 38, N—((S,Z)-5-oxo-4-(3-((1′S,4a′S,8a′S)-5′,5′,8a′-trimethyloctahydro-1′H-spiro[cyclopropane-1,2′-naphthalen]-1′-yl)propylidene)tetrahydrofuran-3-yl)methanesulfonamide] yielded an activation at 10 µM of 30 to 50%.

`C=C1CC[C@H]2[C@@](C)(CC[C@@]3(C)OS(=O)OC[C@@]23C)[C@@H]1C/C=C1/C(=O)OCC1NC=O` (stereo partly drawn) [Example 22, N-((E)-5-oxo-4-(2-((4aR,6aS,7R,10aS,10bR)-4a,6a,10b-trimethyl-8-methylene-3-oxidodecahydro-1H-naphtho[2,1-d][1,3,2]dioxathiin-7-yl)ethylidene)tetrahydrofuran-3-yl)formamide] registered an EC50 of 500 to 2000 nM. Under setting [2], the activation at 10 µM lay in the range of 51 to 100%.

`CC1=CC[C@@H]2[C@@H](C)[C@](O)(C(F)(F)F)CC[C@@]2(C)[C@@H]1C/C=C1/C(=O)OC[C@H]1O` [Example 47, (S,E)-4-hydroxy-3-(2-((1R,4aR,5R,6S,8aR)-6-hydroxy-2,5,8a-trimethyl-6-(trifluoromethyl)-1,4,4a,5,6,7,8,8a-octahydronaphthalen-1-yl)ethylidene)dihydrofuran-2(3H)-one] came in with an EC50 above 2000 nM.

`CC1(C)CCC[C@@]2(C)[C@H]1CCC1(CC1)[C@@H]2CC/C=C1/C(=O)OCC1O` (stereo partly drawn) [Example 32, (E)-4-hydroxy-3-(3-((1′S,4a′S,8a′S)-5′,5′,8a′-trimethyloctahydro-1′H-spiro[cyclopropane-1,2′-naphthalen]-1′-yl)propylidene)dihydrofuran-2(3H)-one]: the activation at 10 µM under setting [2] lay within 30 to 50%.

`C=C1CC[C@@H]2[C@@H](C)[C@](C)(O)CC[C@@]2(C)[C@@H]1C/C=C1/C(=O)OC[C@H]1O` [Example 4, (S,E)-4-hydroxy-3-(2-((1R,4aR,5R,6R,8aR)-6-hydroxy-5,6,8a-trimethyl-2-methylenedecahydronaphthalen-1-yl)ethylidene)dihydrofuran-2(3H)-one] yielded an EC50 below 500 nM. Further, the activation at 10 µM under setting [2] was above 100%.

`C=C1CC[C@@H]2[C@]3(C)COS(=O)O[C@@H]3CC[C@@]2(C)[C@@H]1C/C=C1/C(=O)OC[C@H]1NC=O` (single isomer, unassigned) [Example 20] returned an EC50 of 500 to 2000 nM. Also, under setting [2], the activation at 10 µM was above 100%.

Consider `C=C1CC[C@@H]2[C@]3(C)COS(=O)O[C@@H]3CC[C@@]2(C)[C@@H]1C/C=C1/C(=O)OCC1NC(=O)COC` (stereo partly drawn) [Example 40A, N-((E)-4-(2-((4aR,6aS,7R,10aS,10bR)-6a,10b-dimethyl-8-methylene-3-oxidodecahydro-1H-naphtho[2,1-d][1,3,2]dioxathiin-7-yl)ethylidene)-5-oxotetrahydrofuran-3-yl)-2-methoxyacetamide], for which, under setting [1], the activation at 10 µM fell in the range of 51 to 100%.

Turning to `CO[C@@H]1CC[C@@]2(C)[C@H](C/C=C3/C(=O)OC[C@H]3O)C(C)=CC[C@@H]2[C@H]1C` [Example 17, (S,E)-4-hydroxy-3-(2-((1R,4aR,5R,6R,8aR)-6-methoxy-2,5,8a-trimethyl-1,4,4a,5,6,7,8,8a-octahydronaphthalen-1-yl)ethylidene)dihydrofuran-2(3H)-one], the EC50 was in the range of 500 to 2000 nM. Under setting [2], this molecule yielded an activation at 10 µM of 51 to 100%.

In turn, `CC1(C)CCC[C@@]2(C)[C@H]1CCC1(CC1)[C@@H]2CC/C=C1/C(=O)OC[C@H]1NS(C)(=O)=O` [Example 37, N—((S,E)-5-oxo-4-(3-((1′S,4a′S,8a′S)-5′,5′,8a′-trimethyloctahydro-1′H-spiro[cyclopropane-1,2′-naphthalen]-1′-yl)propylidene)tetrahydrofuran-3-yl)methanesulfonamide] displayed an activation at 10 µM under setting [2] of 30 to 50%.

The values above are taken from patent publication US20170354639A1, “DITERPENOID DERIVATIVES AND METHODS OF USE THEREOF” (Biogen MA Inc., priority 2014, published 2017).
